Reference: ChEMBL document CHEMBL1150596, “Gymnasterkoreaynes A-F, cytotoxic polyacetylenes from Gymnaster koraiensis” (2002)
Values after ≈ are worked out from the molar mass of the structure shown.

system: L1210; assay: Cytotoxicity against mouse L1210 cells after 48 hrs by WST-1 assay; assay type: functional; settings: L1210, 48 h, read-out: ED50 (the source's name)

**Q.** `C=CCCCCC/C=C\C(O)C#CC#C/C=C/C` (stereo not drawn) was tested. Which EC50 did it give?
**A.** 10.4 µg/mL (≈ 42.9 µM)

**Q.** How did the EC50 turn out when `C=CCCCCC/C=C\C(O)C#CC#CC(O)C=C` (stereo not drawn) was run?
**A.** 0.12 µg/mL (≈ 0.464 µM)

**Q.** With `C/C=C/C#CC#C[C@H](O)CCO` [GYMNASTERKOREAYNE A] as the compound, how does the EC50 read?
**A.** > 10 µg/mL

**Q.** With `C=CCCCCC/C=C\[C@H](O)C#CC#CC1OC1C` (stereo partly drawn) [GYMNASTERKOREAYNE B] as the compound, how does the EC50 read?
**A.** 3.3 µg/mL (≈ 12.8 µM)

**Q.** How did the EC50 turn out when `C=CCCCCC/C=C\[C@H](O)C#CC#C[C@H](C=C)OC(C)=O` [GYMNASTERKOREAYNE C] was run?
**A.** 2.1 µg/mL (≈ 6.99 µM)

**Q.** Which EC50 does the source give for `C=CCCCCC/C=C\[C@H](O)C#CC#C/C=C/COC(C)=O` [GYMNASTERKOREAYNE D] here?
**A.** 7.7 µg/mL (≈ 25.6 µM)

**Q.** `C=CCCCCC/C=C/[C@H](O)C#CC#C[C@@H](O)[C@H](C)O` [GYMNASTERKOREAYNE E] was tested. Which EC50 did it give?
**A.** 9.6 µg/mL (≈ 34.7 µM)

**Q.** With `C=CCCCCC/C=C\[C@H](O)C#CC#C/C=C/CO` [GYMNASTERKOREAYNE F] as the compound, how does the EC50 read?
**A.** 3.1 µg/mL (≈ 12 µM)
